Measurements taken from ChEMBL document CHEMBL1255416, “Genetic and biochemical characterization of TRU-1, the endogenous class C beta-lactamase from Aeromonas enteropelogenes” (Antimicrob Agents Chemother, 2010).
pKi: −log10 of the molar value. Converted amounts (≈) assume the structure as drawn.

How the values were obtained:
Escherichia coli [1] = test: Antimicrobial activity against Escherichia coli TOP10; assay type: functional
Escherichia coli [2] = test: Antimicrobial activity against Escherichia coli NI540 carrying cloned class C beta-lactamase TRU-1 gene; assay type: functional
[3] = test system: Aeromonas enteropelogenes; test: Antimicrobial activity against Aeromonas enteropelogenes M1 hyperproducing beta-lactamase AmpC; assay type: functional
[4] = test system: Aeromonas enteropelogenes; test: Antimicrobial activity against Aeromonas enteropelogenes ATCC 49803 producing endogenous class C beta-lactamase TRU-1; assay type: functional
[5] = test system: Aeromonas enteropelogenes; test: (§1) Inhibition of Aeromonas enteropelogenes Beta-lactamase TRU1
[6] = test system: Aeromonas enteropelogenes; test: Ratio of Kcat Km for Aeromonas enteropelogenes Beta-lactamase TRU1
Aeromonas caviae [7] = test: Activity of Aeromonas caviae Beta-lactamase CAV1
Aeromonas caviae [8] = test: Ratio of Kcat Km for Aeromonas caviae Beta-lactamase CAV1
[9] = test system: Aeromonas enteropelogenes; test: Activity of Aeromonas enteropelogenes Beta-lactamase TRU1
Escherichia coli K-12 [10] = test: Activity of Escherichia coli K-12 Beta-lactamase AmpC
Escherichia coli K-12 [11] = test: Ratio of Kcat Km for Escherichia coli K-12 Beta-lactamase AmpC
[12] = as §1
[13] = test system: Aeromonas enteropelogenes; test: Activity of Aeromonas enteropelogenes Beta-lactamase TRU1 assessed as steady state compound hydrolysis rate
[14] = test system: Aeromonas enteropelogenes; test: Ratio of Kcat Km for Aeromonas enteropelogenes Beta-lactamase TRU1 assessed as steady state compound hydrolysis rate

Structure (SMILES): CC1(C)S[C@@H]2[C@H](NC(=O)[C@H](N)c3ccc(O)cc3)C(=O)N2[C@H]1C(=O)O [AMOXICILLIN]
- MIC (Escherichia coli [1]): 2 µg/mL (≈ 5.47 µM)
- MIC (Escherichia coli [2]): 32 µg/mL (≈ 87.6 µM)
- MIC [3]: 4 µg/mL (≈ 10.9 µM)
- MIC [4]: 2 µg/mL (≈ 5.47 µM)

Structure (SMILES): CC(C)(O/N=C(\C(=O)N[C@@H]1C(=O)N2C(C(=O)[O-])=C(C[n+]3ccccc3)CS[C@H]12)c1csc(N)n1)C(=O)O [CEFTAZIDIME]
- Km [5]: 0.12 µM
- MIC (Escherichia coli [1]): 0.125 µg/mL (≈ 0.229 µM)
- kcat/Km [6]: 9.2 ×10⁵ /M/s
- MIC (Escherichia coli [2]): 8 µg/mL (≈ 14.6 µM)
- Km (Aeromonas caviae [7]): 0.6 µM
- kcat (Aeromonas caviae [7]): 0.2 s⁻¹
- MIC [3]: 16 µg/mL (≈ 29.3 µM)
- MIC [4]: 0.125 µg/mL (≈ 0.229 µM)
- kcat/Km (Aeromonas caviae [8]): 3.3 ×10⁵ /M/s
- kcat [9]: 0.11 s⁻¹

Structure (SMILES): CO/N=C(\C(=O)N[C@@H]1C(=O)N2C(C(=O)O)=C(CSc3nc(=O)c(O)nn3C)CS[C@H]12)c1csc(N)n1
- Km [5]: 6 µM
- kcat/Km [6]: 7 ×10⁵ /M/s
- kcat [9]: 0.042 s⁻¹

Structure (SMILES): CC1(C)S[C@@H]2[C@H](NC(=O)[C@H](N)c3ccccc3)C(=O)N2[C@H]1C(=O)O
- Km (Escherichia coli K-12 [10]): 3.5 µM
- kcat (Escherichia coli K-12 [10]): 4.2 s⁻¹
- kcat/Km [6]: 8.8 ×10⁵ /M/s
- kcat/Km (Escherichia coli K-12 [11]): 1.2 ×10⁶ /M/s
- Km [9]: 0.72 µM
- kcat [9]: 0.63 s⁻¹

Structure (SMILES): C[C@@H](O)[C@H]1C(=O)N2C(C(=O)O)=C(SCCNC=N)C[C@H]12 [IMIPENEM ANHYDROUS]
- MIC (Escherichia coli [2]): 0.25 µg/mL (≈ 0.835 µM)
- MIC [3]: 0.125 µg/mL (≈ 0.418 µM)
- MIC [4]: 0.125 µg/mL (≈ 0.418 µM)
- Km [9]: > 500 µM

Structure (SMILES): CC1=C(C(=O)O)N2C(=O)[C@@H](NC(=O)[C@H](N)c3ccccc3)[C@H]2SC1
- kcat/Km [6]: 9.3 ×10⁶ /M/s
- Km [9]: 17 µM
- kcat [9]: 160 s⁻¹

Structure (SMILES): CC1(C)S[C@@H]2[C@H](NC(=O)Cc3ccccc3)C(=O)N2[C@H]1C(=O)O [PENICILLIN G]
- pKi [12]: 5.70
- Km (Escherichia coli K-12 [10]): 4.4 µM
- kcat (Escherichia coli K-12 [10]): 45 s⁻¹
- kcat/Km [6]: 1.4 ×10⁷ /M/s
- Km (Aeromonas caviae [7]): 8.7 µM
- kcat (Aeromonas caviae [7]): 5 s⁻¹
- kcat/Km (Aeromonas caviae [8]): 5.7 ×10⁵ /M/s
- kcat/Km (Escherichia coli K-12 [11]): 1 ×10⁷ /M/s
- kcat [9]: 27 s⁻¹

Structure (SMILES): CO[C@@]1(NC(=O)Cc2cccs2)C(=O)N2C(C(=O)O)=C(COC(N)=O)CS[C@@H]21 [CEFOXITIN]
- Km [5]: 0.025 µM
- Km (Escherichia coli K-12 [10]): 0.65 µM
- kcat (Escherichia coli K-12 [10]): 0.2 s⁻¹
- MIC (Escherichia coli [1]): 4 µg/mL (≈ 9.36 µM)
- kcat/Km [6]: 3.5 ×10⁷ /M/s
- MIC (Escherichia coli [2]): 128 µg/mL (≈ 299 µM)
- Km (Aeromonas caviae [7]): 0.4 µM
- kcat (Aeromonas caviae [7]): 0.5 s⁻¹
- MIC [3]: 32 µg/mL (≈ 74.9 µM)
- MIC [4]: 8 µg/mL (≈ 18.7 µM)
- kcat/Km (Aeromonas caviae [8]): 1.3 ×10⁶ /M/s
- kcat/Km (Escherichia coli K-12 [11]): 3 ×10⁵ /M/s
- kcat [9]: 0.88 s⁻¹

Structure (SMILES): O=C(Cc1cccs1)N[C@@H]1C(=O)N2C(C(=O)[O-])=C(C[n+]3ccccc3)CS[C@H]12
- Km (Escherichia coli K-12 [10]): 4 µM
- kcat (Escherichia coli K-12 [10]): 38 s⁻¹
- kcat/Km [6]: 1.7 ×10⁵ /M/s
- Km (Aeromonas caviae [7]): 770 µM
- kcat (Aeromonas caviae [7]): 300 s⁻¹
- kcat/Km (Aeromonas caviae [8]): 3.9 ×10⁵ /M/s
- kcat/Km (Escherichia coli K-12 [11]): 9.5 ×10⁶ /M/s
- Km [9]: > 600 µM
- kcat [9]: > 100 s⁻¹

Structure (SMILES): CO/N=C(\C(=O)N[C@@H]1C(=O)N2C(C(=O)[O-])=C(C[n+]3cccc4c3CCC4)CS[C@H]12)c1csc(N)n1 [CEFPIROME]
- MIC (Escherichia coli [1]): 0.03 µg/mL (≈ 0.0583 µM)
- kcat/Km [6]: 2.7 ×10⁵ /M/s
- MIC (Escherichia coli [2]): 0.5 µg/mL (≈ 0.972 µM)
- MIC [3]: 4 µg/mL (≈ 7.77 µM)
- MIC [4]: 0.125 µg/mL (≈ 0.243 µM)
- Km [9]: 85 µM
- kcat [9]: 23 s⁻¹

Structure (SMILES): Cc1nnc(SCC2=C(C(=O)O)N3C(=O)[C@@H](NC(=O)Cn4cnnn4)[C@H]3SC2)s1
- kcat/Km [6]: 4.6 ×10³ /M/s
- Km [9]: 120 µM
- kcat [9]: 0.55 s⁻¹
- Km [13]: 80 µM
- kcat [13]: 0.25 s⁻¹
- kcat/Km [14]: 3.1 ×10³ /M/s

Structure (SMILES): CO/N=C(\C(=O)N[C@@H]1C(=O)N2C(C(=O)O)=C(COC(C)=O)CS[C@H]12)c1csc(N)n1 [CEFOTAXIME]
- Km (Escherichia coli K-12 [10]): 1.7 µM
- kcat (Escherichia coli K-12 [10]): 0.17 s⁻¹
- MIC (Escherichia coli [1]): 0.06 µg/mL (≈ 0.132 µM)
- kcat/Km [6]: 1.7 ×10⁷ /M/s
- MIC (Escherichia coli [2]): 8 µg/mL (≈ 17.6 µM)
- Km (Aeromonas caviae [7]): 0.1 µM
- kcat (Aeromonas caviae [7]): 0.2 s⁻¹
- MIC [3]: 32 µg/mL (≈ 70.3 µM)
- MIC [4]: 0.032 µg/mL (≈ 0.0703 µM)
- kcat/Km (Aeromonas caviae [8]): 2 ×10⁶ /M/s
- kcat/Km (Escherichia coli K-12 [11]): 1 ×10⁵ /M/s
- kcat [9]: 0.015 s⁻¹

Structure (SMILES): CCN1CCN(C(=O)N[C@@H](C(=O)N[C@@H]2C(=O)N3[C@@H]2SC(C)(C)[C@@H]3C(=O)O)c2ccccc2)C(=O)C1=O [PIPERACILLIN]
- pKi [12]: 6.70
- MIC (Escherichia coli [1]): 1 µg/mL (≈ 1.93 µM)
- kcat/Km [6]: 2.7 ×10⁶ /M/s
- MIC (Escherichia coli [2]): 8 µg/mL (≈ 15.5 µM)
- MIC [3]: 4 µg/mL (≈ 7.73 µM)
- MIC [4]: 0.25 µg/mL (≈ 0.483 µM)
- kcat [9]: 0.54 s⁻¹

Structure (SMILES): C[C@H]1[C@H](NC(=O)/C(=N\OC(C)(C)C(=O)O)c2csc(N)n2)C(=O)N1S(=O)(=O)O [AZTREONAM]
- MIC [3]: 0.125 µg/mL (≈ 0.287 µM)
- Km [9]: > 500 µM

Structure (SMILES): CO/N=C(\C(=O)N[C@@H]1C(=O)N2C(C(=O)O)=C(COC(N)=O)CS[C@H]12)c1ccco1
- Km (Escherichia coli K-12 [10]): 0.15 µM
- kcat (Escherichia coli K-12 [10]): 0.15 s⁻¹
- kcat/Km [6]: 3.8 ×10⁶ /M/s
- kcat/Km (Escherichia coli K-12 [11]): 1 ×10⁶ /M/s
- kcat [9]: 0.042 s⁻¹

Structure (SMILES): CC(=O)OCC1=C(C(=O)O)N2C(=O)[C@@H](NC(=O)Cc3cccs3)[C@H]2SC1 [CEPHALOTHIN]
- Km (Escherichia coli K-12 [10]): 42 µM
- kcat (Escherichia coli K-12 [10]): 300 s⁻¹
- MIC (Escherichia coli [1]): 4 µg/mL (≈ 10.1 µM)
- kcat/Km [6]: 1 ×10⁷ /M/s
- MIC (Escherichia coli [2]): 256 µg/mL (≈ 646 µM)
- Km (Aeromonas caviae [7]): 500 µM
- kcat (Aeromonas caviae [7]): 540 s⁻¹
- MIC [3]: > 256 µg/mL
- MIC [4]: > 256 µg/mL
- kcat/Km (Aeromonas caviae [8]): 1.1 ×10⁶ /M/s
- kcat/Km (Escherichia coli K-12 [11]): 7 ×10⁶ /M/s
- Km [9]: 45 µM
- kcat [9]: 470 s⁻¹

Structure (SMILES): CC1(C)S[C@@H]2[C@H](NC(=O)[C@H](C(=O)O)c3ccsc3)C(=O)N2[C@H]1C(=O)O [TICARCILLIN]
- MIC (Escherichia coli [1]): 4 µg/mL (≈ 10.4 µM)
- MIC (Escherichia coli [2]): 64 µg/mL (≈ 166 µM)
- MIC [3]: 8 µg/mL (≈ 20.8 µM)
- MIC [4]: 0.125 µg/mL (≈ 0.325 µM)

Structure (SMILES): CO/N=C(\C(=O)N[C@@H]1C(=O)N2C(C(=O)[O-])=C(C[N+]3(C)CCCC3)CS[C@H]12)c1csc(N)n1
- MIC (Escherichia coli [1]): 0.03 µg/mL (≈ 0.0624 µM)
- kcat/Km [6]: 2.6 ×10⁴ /M/s
- Km (Aeromonas caviae [7]): 690 µM
- kcat (Aeromonas caviae [7]): 2.5 s⁻¹
- MIC [3]: 2 µg/mL (≈ 4.16 µM)
- kcat/Km (Aeromonas caviae [8]): 3.6 ×10³ /M/s
- Km [9]: 360 µM
- kcat [9]: 9.4 s⁻¹
